A short description of data set [1]: Coculture of A549 and K562 cells treated with Mitoxantrone, viability of K562 cells. The class given is cell-based. Particulars: human, K562 cells cocultured with A549 cells, K562 coculture with A549, Mitoxantrone 0.4 M.
Data set [2] in a line: Coculture of A549 and K562 cells treated with Mitoxantrone, viability of A549 cells. The class given is cell-based. The following applies: human, A549 cells cocultured with K562 cells, A549 co-cultured with K562, Mitoxantrone 0.4 M.
Data set [3] deals with K562 (chronic myelogenous leukemia) cells having no ABC transporter. The experiment in a line: Cell activity/viability of K562 cells treated with Mitoxantrone (Sulforhodamine B kit), single culture. Type of data set: cell-based. Here is the method:
(§1) This was performed in the same manner as in Example 1, except that K562 (chronic myelogenous leukemia) cells having no ABC transporter were incubated in place of the A549 cells.
(§2) This was performed in the same manner as in Example 1, except that K562 cells having no ABC transporter were used in place of the A549 cells.

Test in data set [4]: as above
The class given is cell-based. The following applies: human, K562 cells (no ABC transporter); K562 single culture, Mitoxantrone 0.4 M, incubated for 96 hours. On the procedure: as §1, §2

The subject of data set [5] is A549 (human lug carcinoma cell ATCC no.CCL-185), having ABC transporters of the ABCG2 family.

Where two headings read alike, the source gives them in different places.

As to `O=C1c2c(O)ccc(O)c2C(=O)c2c(NCCNCCO)ccc(NCCNCCO)c21` [Mitoxantrone], the viability at 96 h, 0.4 M in data set [1] was 17%; in data set [2], 92%; in data set [4], 28%. Besides, the cell activity result in data set [3] (K562, Mitoxantrone concentration of 0.1M (FIG. 6)) is listed as “about 60%”; in data set [3] (K562, Mitoxantrone concentration of 0.2M (FIG. 6)), “almost zero”; in data set [5] (A549, Mitoxantrone concentration of 0.4M (FIG. 6)) it was 98%; in data set [5] (A549, Mitoxantrone concentration of 1.0M (FIG. 6)) it was 86%; in data set [5] (A549, Mitoxantrone concentration of 2.6 (FIG. 6)), 68%.

A word on the viability: it is a per cent measure of how many cells are alive, often set against a control.

(Values after US20070105215A1, “METHOD OF CULTURING STEM CELLS USING ABC TRANSPORTERS” (SAMSUNG ELECTRONICS CO., LTD., priority 2005, published 2007).)
